Assay results: ChEMBL document CHEMBL1201862, “PubChem BioAssay data set” (2004)
Calls of active or inactive are those of the source.

Tests used:
[1] = target: Peroxisome proliferator-activated receptor gamma/Nuclear receptor coactivator 2 (Homo sapiens, UniProt P37231); format: functional;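 also: agonist potency for raising coactivator recruitment to the receptor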
[2] = target: Peroxisome proliferator-activated receptor gamma/Nuclear receptor coactivator 1 (Homo sapiens, UniProt P37231); format: functional;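 also: agonist potency as compounds enhance coactivator SRC-1 recruitment to PPARgamma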
[3] = target: Peroxisome proliferator-activated receptor gamma/Nuclear receptor coactivator 3 (Homo sapiens, UniProt P37231); format: functional;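 also: agonist potency for raising coactivator recruitment to the receptor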
Estrogen receptor = target: T1, Estrogen receptor (Homo sapiens, UniProt P03372); test: blockers of SRC-3 recruitment to ERα – biochemical, ELISA, streptavidin-HRP readout, orthogonal assay, confirmation (AID 1079)
T1 sequence (P03372 whole entry): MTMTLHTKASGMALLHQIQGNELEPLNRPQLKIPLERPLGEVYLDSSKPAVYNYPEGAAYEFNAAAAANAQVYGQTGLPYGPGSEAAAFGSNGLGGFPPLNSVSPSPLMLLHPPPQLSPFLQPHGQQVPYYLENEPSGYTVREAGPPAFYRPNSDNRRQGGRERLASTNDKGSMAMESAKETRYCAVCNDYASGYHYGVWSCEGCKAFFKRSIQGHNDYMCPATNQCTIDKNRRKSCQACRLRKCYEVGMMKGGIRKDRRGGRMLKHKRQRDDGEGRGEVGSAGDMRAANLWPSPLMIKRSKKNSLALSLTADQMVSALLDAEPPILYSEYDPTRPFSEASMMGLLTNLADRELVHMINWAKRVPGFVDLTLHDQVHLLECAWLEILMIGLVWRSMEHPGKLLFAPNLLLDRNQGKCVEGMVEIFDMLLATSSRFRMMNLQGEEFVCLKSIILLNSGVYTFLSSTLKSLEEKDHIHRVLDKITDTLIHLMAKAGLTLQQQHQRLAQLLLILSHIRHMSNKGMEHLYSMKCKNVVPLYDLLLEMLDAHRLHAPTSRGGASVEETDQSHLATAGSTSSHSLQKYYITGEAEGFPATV

[4] = antiviral protection against BTV-induced cell death – arbovirus, BSR cells, confirmation (AID 1250); format: functional;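 also: protection from viral cytopathic effect measured as cell viability by ATP luminescence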
[5] = target: T2, Zinc finger protein mex-5 (Caenorhabditis elegans, UniProt Q9XUB2); test: potency of MEX-5 RNA-binding blockers – biochemical, C. elegans, fluorescence polarization, dose response (AID 1960)
T2 sequence (Q9XUB2 whole entry): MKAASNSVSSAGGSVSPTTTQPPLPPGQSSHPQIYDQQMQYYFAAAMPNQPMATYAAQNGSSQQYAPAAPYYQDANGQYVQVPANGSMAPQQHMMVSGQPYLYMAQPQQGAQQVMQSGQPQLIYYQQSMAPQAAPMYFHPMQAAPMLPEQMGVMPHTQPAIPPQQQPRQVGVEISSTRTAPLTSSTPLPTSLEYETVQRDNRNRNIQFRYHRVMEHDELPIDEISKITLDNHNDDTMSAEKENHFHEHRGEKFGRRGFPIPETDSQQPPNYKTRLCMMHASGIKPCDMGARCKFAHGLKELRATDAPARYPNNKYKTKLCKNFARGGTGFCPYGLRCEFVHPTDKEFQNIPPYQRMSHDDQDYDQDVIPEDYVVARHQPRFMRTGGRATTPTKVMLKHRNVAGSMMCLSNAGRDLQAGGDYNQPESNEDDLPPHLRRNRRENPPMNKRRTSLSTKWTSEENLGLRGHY

[6] = target: T3, RNA-binding protein pos-1 (Caenorhabditis elegans, UniProt G5EF15); test: disruptors of C. elegans POS-1 RNA interaction – biochemical, fluorescence polarization, dose response (AID 1964);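 also: purified POS-1 fused to maltose binding protein made in E. coli; potency of compounds blocking POS-1 binding to fluorescent RNA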
T3 sequence (G5EF15 whole entry): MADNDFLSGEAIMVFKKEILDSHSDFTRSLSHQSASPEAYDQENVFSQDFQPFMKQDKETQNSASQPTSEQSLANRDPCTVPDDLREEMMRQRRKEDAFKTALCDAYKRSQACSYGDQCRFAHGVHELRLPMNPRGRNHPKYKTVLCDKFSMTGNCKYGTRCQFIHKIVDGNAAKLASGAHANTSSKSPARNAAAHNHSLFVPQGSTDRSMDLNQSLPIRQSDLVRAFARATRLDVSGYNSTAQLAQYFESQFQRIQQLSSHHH

[7] = Trypanosoma cruzi growth suppression in host cells – NIH3T3 host cells, beta-gal luminescence, confirmation (AID 2044); format: functional, cell-based;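 also: intracellular parasites grown in NIH/3T3 mouse fibroblasts as host cells; luminescent beta-galactosidase reporter signal from transgenic T. cruzi replicating inside host cells; inhibitors lower the luminescence signal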
[8] = target: Mothers against decapentaplegic homolog 3 (Homo sapiens, UniProt P84022); test: inhibitors of SMAD-driven TGF-beta signaling – dose response (AID 715); format: functional
[9] = NIH3T3 cell viability loss – ATP luminescence, mouse fibroblasts, counter-screen, dose response (AID 2010); format: functional, cell-based;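 also: cells exposed to compound for about 90 hours before reading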
Mucolipin-3 = Mucolipin-3 (Homo sapiens, UniProt Q8TDD5); test: Dose response cell-based high-throughput screening assay for agonists of the transient receptor potential channel ML3 (TRPML3). [Related pubchem assays: 1526, 1424, 1448 ]; format: functional
Ion channel NompC = Ion channel NompC (Danio rerio, UniProt Q7T1G6); test: Fluorescence counterscreen assay for TRPML3 agonists: dose response cell-based high-throughput screening assay to identify agonists of the transient receptor potential channel N1 (TRPN1). [Related pubchem assays: 1526, 1424, 1448 ]; format: functional
Aminopeptidase N = target: T4, Aminopeptidase N (Plasmodium falciparum FcB1/Columbia, UniProt O96935); test: malaria alanyl aminopeptidase activity blockers – biochemical, fluorogenic H-Leu-NHMec substrate, 1536-well (AID 1445); set-up: species or system Plasmodium falciparum 3D7, 3D7
T4 sequence (O96935 whole entry): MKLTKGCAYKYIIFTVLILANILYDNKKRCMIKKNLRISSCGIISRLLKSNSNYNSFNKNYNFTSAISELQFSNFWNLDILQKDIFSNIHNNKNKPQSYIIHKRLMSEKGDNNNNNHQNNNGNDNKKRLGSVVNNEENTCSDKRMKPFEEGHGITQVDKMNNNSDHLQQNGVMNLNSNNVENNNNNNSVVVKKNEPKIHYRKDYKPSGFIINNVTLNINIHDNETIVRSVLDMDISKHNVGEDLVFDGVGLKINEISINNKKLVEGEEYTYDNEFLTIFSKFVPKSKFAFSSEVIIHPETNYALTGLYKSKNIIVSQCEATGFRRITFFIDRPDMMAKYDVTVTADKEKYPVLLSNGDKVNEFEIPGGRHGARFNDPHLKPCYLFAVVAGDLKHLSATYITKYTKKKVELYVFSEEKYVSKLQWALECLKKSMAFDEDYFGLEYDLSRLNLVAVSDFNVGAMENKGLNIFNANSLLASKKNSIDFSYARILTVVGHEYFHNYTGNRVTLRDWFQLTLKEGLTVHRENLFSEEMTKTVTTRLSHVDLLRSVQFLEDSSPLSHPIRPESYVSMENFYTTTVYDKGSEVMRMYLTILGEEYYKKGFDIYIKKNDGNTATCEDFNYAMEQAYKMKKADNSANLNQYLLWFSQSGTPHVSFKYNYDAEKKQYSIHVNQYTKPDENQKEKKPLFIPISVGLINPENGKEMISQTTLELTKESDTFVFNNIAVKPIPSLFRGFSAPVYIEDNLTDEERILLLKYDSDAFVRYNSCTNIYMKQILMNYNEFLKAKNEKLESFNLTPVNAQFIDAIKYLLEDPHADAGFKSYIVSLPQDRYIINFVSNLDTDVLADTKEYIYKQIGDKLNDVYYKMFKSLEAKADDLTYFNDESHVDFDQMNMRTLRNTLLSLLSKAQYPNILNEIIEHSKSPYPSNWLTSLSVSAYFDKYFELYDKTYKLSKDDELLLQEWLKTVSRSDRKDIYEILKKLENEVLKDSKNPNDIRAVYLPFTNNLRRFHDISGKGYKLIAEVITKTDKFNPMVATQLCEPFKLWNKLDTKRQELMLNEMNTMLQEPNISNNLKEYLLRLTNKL

[10] = CCR5-tropic HIV-1 fusion blockers – cell-based, CCR5-tropic Env, dose response (AID 2279); format: functional
HeLa = test: Cytotoxicity counterscreen assay for transcriptional activators of heat shock protein 70 (Hsp70). [Related pubchem assays: 1203, 1252 ]; format: functional; conditions: Homo sapiens;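 also: cells exposed to compound for 16 hours before readout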
[11] = target: T5, Rac GTPase-activating protein 1 (Homo sapiens, UniProt Q9H0H5); test: blockers of MgcRacGAP-driven Rac1 GTP hydrolysis – biochemical, ADP Hunter fluorescence, primary and confirmatory, confirmation (AID 624330); format: functional
T5 sequence (Q9H0H5 whole entry): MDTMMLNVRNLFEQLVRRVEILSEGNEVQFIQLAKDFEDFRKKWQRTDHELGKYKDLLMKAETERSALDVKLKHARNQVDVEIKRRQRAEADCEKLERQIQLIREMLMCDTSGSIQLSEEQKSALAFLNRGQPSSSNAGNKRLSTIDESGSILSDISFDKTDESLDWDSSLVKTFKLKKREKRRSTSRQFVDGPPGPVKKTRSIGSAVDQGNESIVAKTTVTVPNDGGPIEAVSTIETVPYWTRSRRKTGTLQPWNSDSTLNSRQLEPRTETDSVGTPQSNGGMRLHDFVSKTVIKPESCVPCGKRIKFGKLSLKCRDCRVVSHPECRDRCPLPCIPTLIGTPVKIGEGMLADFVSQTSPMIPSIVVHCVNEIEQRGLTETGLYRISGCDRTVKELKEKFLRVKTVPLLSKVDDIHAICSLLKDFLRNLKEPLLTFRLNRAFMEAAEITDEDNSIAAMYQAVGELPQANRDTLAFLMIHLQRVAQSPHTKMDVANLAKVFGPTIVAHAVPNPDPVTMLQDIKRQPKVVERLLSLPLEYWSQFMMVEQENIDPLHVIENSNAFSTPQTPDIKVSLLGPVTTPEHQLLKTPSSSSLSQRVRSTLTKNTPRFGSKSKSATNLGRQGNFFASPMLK

[12] = mitochondrial function rescue without frataxin homolog – Friedreich's ataxia, plus single-dose screen, dose response (AID 1465); format: functional;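 also: yeast depleted of Yfh1p frataxin homolog grown on glycerol needing respiration; WST-1 tetrazolium dye reduction as measure of cellular dehydrogenase metabolic activity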
[13] = Luminescence Cell-Based Dose Retest to Confirm Inhibitors of Cancer Stem Cells. [Related pubchem assays (depositor defined):AID2717, AID2721]; format: functional; conditions: Homo sapiens
[14] = target: T6, Probable nicotinate-nucleotide adenylyltransferase (Staphylococcus aureus (strain N315), UniProt P65502); format: functional, Staphylococcus aureus subsp. aureus N315; conditions: read-out: IC50_Mean;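 as to IC50 Mean: confirmatory dose-response retesting of NadD inhibitor hits first found in an ultra-high-throughput screen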
Streptokinase A = target: T7, Streptokinase A (Streptococcus pyogenes serotype M1, UniProt P10520); test: viability-normalized secreted streptokinase activity reduction – plasminogen activation absorbance, OD405, dose response (AID 1914); format: functional, Streptococcus pyogenes M1 GAS;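 also: secreted streptokinase activity via plasminogen activation per viability signal from cell pellet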
T7 sequence (P10520 whole entry): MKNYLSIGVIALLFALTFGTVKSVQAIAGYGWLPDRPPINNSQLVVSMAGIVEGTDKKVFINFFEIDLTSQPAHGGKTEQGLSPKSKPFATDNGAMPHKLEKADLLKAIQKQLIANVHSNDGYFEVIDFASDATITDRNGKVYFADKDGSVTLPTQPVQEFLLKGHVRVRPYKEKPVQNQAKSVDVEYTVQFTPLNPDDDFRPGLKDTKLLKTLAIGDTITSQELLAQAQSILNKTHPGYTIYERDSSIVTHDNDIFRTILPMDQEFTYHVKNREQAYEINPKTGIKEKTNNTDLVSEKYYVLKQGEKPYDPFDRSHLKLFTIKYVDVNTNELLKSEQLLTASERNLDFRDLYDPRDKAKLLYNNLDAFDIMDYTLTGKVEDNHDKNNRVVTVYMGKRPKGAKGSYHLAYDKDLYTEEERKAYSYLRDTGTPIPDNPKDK

Streptococcus = test: GAS UMAA2166 growth inhibition – luminescence, BacTiterGlo, counter-screen for streptokinase expression inhibitor project, dose response (AID 1915); format: functional, organism-based;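 also: potency for reduction of bacterial viability or growth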
[15] = test system: Streptococcus sp. 'group A'; test: Streptococcus pyogenes SK(-)GAS viability under kanamycin – luminescence, BacTiterGlo, confirmation, counter-screen for streptokinase expression inhibitor project, dose response (AID 1900); format: functional, organism-based
[16] = target: T6, Probable nicotinate-nucleotide adenylyltransferase; format: functional, Staphylococcus aureus subsp. aureus N315
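For AC50 in this document: cells exposed to compound for roughly 70 hours or longer before luminescence read.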

T6 sequence (P65502 whole entry): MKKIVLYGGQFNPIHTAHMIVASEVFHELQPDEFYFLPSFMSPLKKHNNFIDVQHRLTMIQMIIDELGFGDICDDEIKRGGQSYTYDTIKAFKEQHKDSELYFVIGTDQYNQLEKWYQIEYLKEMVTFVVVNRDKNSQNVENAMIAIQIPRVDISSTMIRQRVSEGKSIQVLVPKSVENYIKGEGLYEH
Sequence of Mothers against decapentaplegic homolog 3 (P84022 whole entry): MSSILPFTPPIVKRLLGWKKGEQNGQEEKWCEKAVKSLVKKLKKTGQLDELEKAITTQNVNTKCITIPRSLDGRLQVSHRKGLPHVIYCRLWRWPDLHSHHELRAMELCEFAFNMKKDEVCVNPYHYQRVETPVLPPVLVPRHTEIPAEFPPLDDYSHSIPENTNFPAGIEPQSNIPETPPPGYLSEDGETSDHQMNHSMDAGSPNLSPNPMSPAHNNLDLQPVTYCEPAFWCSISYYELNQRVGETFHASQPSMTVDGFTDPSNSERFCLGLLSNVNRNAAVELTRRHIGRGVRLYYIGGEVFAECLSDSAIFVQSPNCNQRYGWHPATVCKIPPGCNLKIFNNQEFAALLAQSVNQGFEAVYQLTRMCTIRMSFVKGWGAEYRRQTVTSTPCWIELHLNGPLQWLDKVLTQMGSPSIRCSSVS
Sequence of Ion channel NompC (Q7T1G6 whole entry): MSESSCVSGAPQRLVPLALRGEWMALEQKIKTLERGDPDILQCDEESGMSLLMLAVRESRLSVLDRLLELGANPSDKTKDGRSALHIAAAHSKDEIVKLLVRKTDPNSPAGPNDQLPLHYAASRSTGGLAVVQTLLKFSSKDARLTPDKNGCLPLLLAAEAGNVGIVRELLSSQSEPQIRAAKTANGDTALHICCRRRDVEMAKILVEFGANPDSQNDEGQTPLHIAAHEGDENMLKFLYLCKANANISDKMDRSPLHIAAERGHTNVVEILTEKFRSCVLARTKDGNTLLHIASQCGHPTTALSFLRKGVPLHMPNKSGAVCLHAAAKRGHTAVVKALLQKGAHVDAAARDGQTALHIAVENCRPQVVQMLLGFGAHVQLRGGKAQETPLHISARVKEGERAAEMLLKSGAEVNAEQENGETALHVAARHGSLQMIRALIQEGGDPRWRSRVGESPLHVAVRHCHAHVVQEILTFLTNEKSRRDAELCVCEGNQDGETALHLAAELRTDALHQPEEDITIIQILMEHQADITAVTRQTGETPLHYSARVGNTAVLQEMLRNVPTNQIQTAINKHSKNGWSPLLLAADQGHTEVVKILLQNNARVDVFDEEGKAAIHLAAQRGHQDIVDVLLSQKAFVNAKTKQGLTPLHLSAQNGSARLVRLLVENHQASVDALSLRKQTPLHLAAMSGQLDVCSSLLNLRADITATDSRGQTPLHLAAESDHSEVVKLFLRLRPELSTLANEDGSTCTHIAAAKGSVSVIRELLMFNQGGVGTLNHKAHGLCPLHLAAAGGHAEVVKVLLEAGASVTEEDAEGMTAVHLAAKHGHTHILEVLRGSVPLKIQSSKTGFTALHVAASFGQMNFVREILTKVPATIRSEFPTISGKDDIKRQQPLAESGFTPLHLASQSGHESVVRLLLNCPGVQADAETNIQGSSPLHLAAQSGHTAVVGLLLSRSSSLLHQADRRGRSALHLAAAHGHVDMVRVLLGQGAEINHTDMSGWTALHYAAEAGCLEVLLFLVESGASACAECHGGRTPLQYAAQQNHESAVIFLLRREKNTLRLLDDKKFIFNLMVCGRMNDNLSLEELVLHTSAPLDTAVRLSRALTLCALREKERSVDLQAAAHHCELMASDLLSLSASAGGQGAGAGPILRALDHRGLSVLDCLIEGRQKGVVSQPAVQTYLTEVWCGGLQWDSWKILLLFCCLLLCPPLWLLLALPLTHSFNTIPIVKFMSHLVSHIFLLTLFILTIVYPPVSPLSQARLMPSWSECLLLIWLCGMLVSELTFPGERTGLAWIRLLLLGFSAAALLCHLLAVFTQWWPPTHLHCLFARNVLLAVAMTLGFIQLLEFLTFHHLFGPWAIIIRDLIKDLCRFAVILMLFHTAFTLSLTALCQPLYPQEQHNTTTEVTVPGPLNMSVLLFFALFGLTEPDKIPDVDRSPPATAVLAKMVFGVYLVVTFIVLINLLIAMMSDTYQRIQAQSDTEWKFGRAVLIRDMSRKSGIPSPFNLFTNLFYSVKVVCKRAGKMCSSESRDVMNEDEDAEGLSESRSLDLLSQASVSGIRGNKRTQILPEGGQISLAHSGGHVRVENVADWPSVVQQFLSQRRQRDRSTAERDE
Sequence of Peroxisome proliferator-activated receptor gamma/Nuclear receptor coactivator 3 (P37231 whole entry): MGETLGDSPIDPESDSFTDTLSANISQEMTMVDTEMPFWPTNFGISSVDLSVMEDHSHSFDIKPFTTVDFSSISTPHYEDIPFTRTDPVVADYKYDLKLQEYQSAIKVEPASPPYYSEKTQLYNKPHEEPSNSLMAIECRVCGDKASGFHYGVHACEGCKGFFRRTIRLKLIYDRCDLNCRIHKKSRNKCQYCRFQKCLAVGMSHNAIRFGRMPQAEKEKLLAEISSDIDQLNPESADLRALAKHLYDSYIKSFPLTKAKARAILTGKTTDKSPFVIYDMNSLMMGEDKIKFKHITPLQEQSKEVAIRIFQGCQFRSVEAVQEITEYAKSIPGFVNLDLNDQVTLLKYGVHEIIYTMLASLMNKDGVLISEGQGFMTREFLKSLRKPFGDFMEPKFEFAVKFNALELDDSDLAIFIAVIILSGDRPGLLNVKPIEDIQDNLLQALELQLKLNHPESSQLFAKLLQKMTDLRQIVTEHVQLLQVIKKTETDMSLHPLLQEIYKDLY
Sequence of Peroxisome proliferator-activated receptor gamma/Nuclear receptor coactivator 3 (Q9Y6Q9 whole entry, further chain): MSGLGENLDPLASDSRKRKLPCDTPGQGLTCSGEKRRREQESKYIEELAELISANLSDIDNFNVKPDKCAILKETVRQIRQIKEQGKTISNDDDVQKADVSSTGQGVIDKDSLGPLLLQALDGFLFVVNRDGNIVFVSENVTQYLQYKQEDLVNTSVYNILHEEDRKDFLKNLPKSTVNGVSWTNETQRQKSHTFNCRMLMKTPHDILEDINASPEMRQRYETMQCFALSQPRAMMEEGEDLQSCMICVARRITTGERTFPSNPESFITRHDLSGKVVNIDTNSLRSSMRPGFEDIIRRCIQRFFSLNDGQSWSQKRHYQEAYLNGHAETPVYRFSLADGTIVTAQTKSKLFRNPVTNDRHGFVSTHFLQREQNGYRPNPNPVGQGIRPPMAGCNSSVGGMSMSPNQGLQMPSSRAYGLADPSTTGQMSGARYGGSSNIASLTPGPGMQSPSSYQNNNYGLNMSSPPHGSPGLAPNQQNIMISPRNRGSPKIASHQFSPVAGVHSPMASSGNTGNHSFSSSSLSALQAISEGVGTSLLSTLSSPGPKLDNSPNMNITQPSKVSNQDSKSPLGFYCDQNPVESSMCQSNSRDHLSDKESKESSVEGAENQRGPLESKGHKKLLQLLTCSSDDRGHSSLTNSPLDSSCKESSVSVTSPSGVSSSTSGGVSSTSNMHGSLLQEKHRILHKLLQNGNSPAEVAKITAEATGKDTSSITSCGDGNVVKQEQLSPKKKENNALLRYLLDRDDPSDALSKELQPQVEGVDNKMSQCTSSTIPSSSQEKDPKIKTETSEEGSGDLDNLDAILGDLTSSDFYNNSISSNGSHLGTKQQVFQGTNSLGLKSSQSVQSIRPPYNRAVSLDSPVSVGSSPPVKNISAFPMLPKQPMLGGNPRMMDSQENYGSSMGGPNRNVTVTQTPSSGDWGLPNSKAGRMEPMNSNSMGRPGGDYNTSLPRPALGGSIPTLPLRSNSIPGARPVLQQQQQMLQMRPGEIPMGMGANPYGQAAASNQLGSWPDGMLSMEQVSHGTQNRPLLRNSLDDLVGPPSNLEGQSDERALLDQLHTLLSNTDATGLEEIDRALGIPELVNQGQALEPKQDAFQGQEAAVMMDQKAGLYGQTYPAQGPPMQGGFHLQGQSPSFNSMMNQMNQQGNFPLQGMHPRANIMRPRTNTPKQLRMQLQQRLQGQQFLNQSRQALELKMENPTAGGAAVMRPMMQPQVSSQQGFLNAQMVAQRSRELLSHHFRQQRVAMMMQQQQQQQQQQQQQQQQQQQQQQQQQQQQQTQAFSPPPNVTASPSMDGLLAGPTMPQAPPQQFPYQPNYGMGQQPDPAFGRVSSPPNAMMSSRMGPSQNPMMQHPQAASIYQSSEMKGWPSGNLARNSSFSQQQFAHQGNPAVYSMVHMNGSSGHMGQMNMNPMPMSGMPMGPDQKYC
Sequence of Mucolipin-3 (Q8TDD5 whole entry): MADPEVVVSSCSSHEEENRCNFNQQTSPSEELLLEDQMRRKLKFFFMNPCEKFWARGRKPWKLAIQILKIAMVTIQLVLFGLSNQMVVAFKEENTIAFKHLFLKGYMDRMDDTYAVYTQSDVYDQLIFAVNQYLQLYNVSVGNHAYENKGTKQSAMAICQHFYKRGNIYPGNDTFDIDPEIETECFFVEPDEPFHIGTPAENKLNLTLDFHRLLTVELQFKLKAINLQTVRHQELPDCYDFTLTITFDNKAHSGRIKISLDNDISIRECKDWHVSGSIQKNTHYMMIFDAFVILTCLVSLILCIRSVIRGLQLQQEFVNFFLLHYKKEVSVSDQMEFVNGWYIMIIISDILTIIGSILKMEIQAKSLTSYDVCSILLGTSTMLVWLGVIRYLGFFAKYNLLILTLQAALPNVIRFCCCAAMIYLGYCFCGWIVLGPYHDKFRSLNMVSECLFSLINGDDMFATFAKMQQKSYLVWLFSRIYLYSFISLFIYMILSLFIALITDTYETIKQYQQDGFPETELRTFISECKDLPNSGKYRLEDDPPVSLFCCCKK

CCOC(=O)C1CCN(C(=O)CSc2ccccc2Cl)CC1
EC50 [1]: > 79.4 µM (not active)
EC50 [2]: > 79.4 µM (not active)
EC50 [3]: > 79.4 µM (not active)

COc1ccc(N2CCN(C(=O)CCCn3c(=S)[nH]c4ccccc4c3=O)CC2)cc1
IC50 (Estrogen receptor): > 50 µM (not active)

Cc1cc(C)c2c(O)nc(SCC(=O)c3ccc(C)c(C)c3)nc2n1
IC50 [4]: 27.6 µM (active)

CCCN1CCCc2cc(CN)ccc21
EC50 [5]: 13 µM (active)
EC50 [6]: 18.5 µM (active)
EC50 [7]: 0.127 µM (active)
IC50 [8]: 24.6 µM (active)
EC50 [9]: > 30 µM (not active)

Cc1onc(-c2ccccc2Cl)c1C(=O)Nc1cccc(-c2nc3ncccn3c2C)c1
EC50 (Mucolipin-3): > 29.9 µM (not active)
EC50 (Ion channel NompC): > 29.9 µM (not active)

COc1cc(/C=C2\SC(=O)N(CC(=O)Nc3cccc(C)c3)C2=O)cc([N+](=O)[O-])c1O
IC50 (Aminopeptidase N): 40.8 µM (active)
IC50 [10]: > 50 µM (active)

COc1ccccc1C1Nc2cccc3cccc(c23)N1
CC50 (HeLa): > 99 µM (not active)
IC50 [11]: 35.1 µM (active)

Oc1nc(NN=C(S)NCc2ccccc2)nc2c1C1(CCCCC1)Cc1ccccc1-2
EC50 [12]: > 100 µM (active)
AC50 [13]: 3 µM (active)
IC50 [14]: 35.8 µM (active)
EC50 (Streptokinase A): 4.58 µM (active)
EC50 (Streptococcus): 6.03 µM (active)
EC50 [15]: 3.33 µM (active)
IC50 [16]: 11.8 µM (active)
